Reference: patent publication US5641751A, “Tumor necrosis factor inhibitors” (Centocor, Inc., priority 1995, dated 1997)
Read-outs that look alike come from different tables or passages of the source. Ends that are not written are not given here.

Biological target: T1, human TNFα (Homo sapiens, UniProt P01375)
T1 construct: purchased Biosource, Camarillo, Calif
Assay: p55 Receptor/IgG fusion protein binding assay (inhibition of TNFα capture by p55-Ig coated plate)
Conditions: inhibition of binding of TNFα to p55TNFr-IgG chimeric construct
Description: This assay was designed to identify peptides which bind to human TNFα and thereby prevent the capture of the TNFα by a microtiter plate coated with p55-Ig fusion protein. A constant concentration of human TNFα is preincubated with the test peptide and then incubated on the p55-Ig coated microtiter wells. Bound TNFα is detected using a specific antisera and an alkaline phosphatase-conjugated probe.
A 96-well, U-bottom polyvinylchloride microtiter plate was coated with 50 μl/well of p55-Ig fusion protein at 5 μg/ml in 0.01M sodium phosphate, 0.15M sodium chloride (PBS) by incubation overnight at 4° C. or 2 hours at 37° C. The fusion protein, which consists of a p55 TNF receptor protein portion and an IgG portion, can be produced as disclosed in U.S. application Ser. No. 08/010,406 filed Jan. 29, 1993 which is incorporated herein by reference. The plate was washed three times with 0.05% Tween-20 in PBS, then blocked, by adding 150 μl/well of assay buffer (10 mM N-2-hydroxyethylpiperazine-N'-[…] (HEPES) pH 7.2, containing 0.1% porcine gelatin, 0.1% Tween-80, and 0.01% sodium azide) and continuing incubation for 1 hour at 37° C. or at 4° C. for 1-7 days.
Lyophilized peptides to be tested were weighed in tared 12×75 mm polystyrene tubes and reconstituted to a concentration of 1.2 mM with assay buffer. Each suspension was sonicated in a water bath for 1-5 minutes and vortexed 15-30 seconds to disperse large particles. Serial dilutions of each peptide suspension were prepared using assay buffer in a 96-well polystyrene microtiter plate. Additional wells received Fab fragment of the mouse/human monoclonal anti-human TNFα antibody cA2 (positive control) or assay buffer (negative control). […] The polystyrene dilution plate was then sealed and incubated 1 hour at room temperature on an orbital mixer set at moderate speed.
Following the sample preincubation, blocker was discarded from the p55-Ig coated plate and blotted dry. Aliquots (50 μl) of each peptide or control were transferred into duplicate wells on the p55-Ig coated plate which was then sealed and incubated 1 hour at 37° C. Duplicate wells containing only assay buffer were included as a plate blank. After incubation the p55-Ig plate was washed three times with 0.05% Tween-20 in PBS.
To detect TNFα captured by the p55-Ig plate, all wells were incubated in succession with polyclonal rabbit anti-human TNFα (Genzyme, Boston, Mass.; 1:500 in assay buffer, 50 μl/well), biotinylated goat anti-rabbit Ig (H&L) (Vector Laboratories, Burlingame, Calif.; 1 μg/ml in assay buffer, 50 μl/well) and streptavidin-alkaline phosphatase conjugate (Pierce, Rockford, Ill.; 1 μg/ml in assay buffer, 50 μl/well). All incubations were for 1 hour at 37° C. and after each incubation the plate was washed three times with 0.05% Tween-20 in PBS. Fifty microliters of alkaline phosphatase substrate solution (alkaline buffer (Sigma, St. Louis, Mo.) diluted 1:500 in deionized water plus one 5 mg tablet of p-nitrophenyl phosphate (Sigma, St. Louis, Mo.) per 5 ml of diluted buffer) was added to all wells and incubation continued for 20 minutes at room temperature. Color development was stopped by adding to all wells 50 μl of 3N sodium hydroxide. The optical density (OD) at 405 nm was measured on a microtiter plate reader (Molecular Devices Vmax plate reader), with the plate blank wells subtracted as background. The activity of each peptide was then expressed as the percent inhibition of TNFα capture by the p55-Ig plate, relative to the amount of TNFα captured in wells containing only assay buffer (negative control), as follows:
% inhibition=100-((mean OD peptide/mean OD negative control)×100).
The inhibition of binding of TNFα to p55TNFr-IgG chimeric construct was performed as described above using several embodiments of the invention. The peptides were tested to determine the concentration necessary to inhibit TNFα by 50% (IC50) relative to TNFα activity in the absence of the peptide.

[1] = TNFα 25 ng/ml, read-out: IC50 (concentration necessary to inhibit TNFα by 50%)
[2] = highest value observed, read-out: maximum IC50 observed
[3] = lowest value observed, read-out: minimum IC50 observed

T1 sequence (P01375 77-233 limits assumed): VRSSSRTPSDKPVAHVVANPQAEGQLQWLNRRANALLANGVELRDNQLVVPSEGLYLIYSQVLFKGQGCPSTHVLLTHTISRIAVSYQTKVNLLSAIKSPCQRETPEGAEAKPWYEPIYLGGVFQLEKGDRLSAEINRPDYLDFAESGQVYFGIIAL

Substance	IC50 [1]	IC50 [2]	IC50 [3]
Ac-VIWRGGSTDYNAAFMS-NH2 [SEQ ID NO:20]	86 µM	150 µM	37 µM
Ac-LLIYYVSNRYTG-NH2 [SEQ ID NO:17]	155 µM	210 µM	51 µM
Ac-LLIYYVSNRYTGV-NH2 [SEQ ID NO:18]	307 µM	829 µM	29 µM
SASSSVSFMYA-NH2 [SEQ ID NO:4]	80 µM	87 µM	74 µM

Stronger by IC50 [1], values ahead:

IC50 [1]	IC50 [2]	IC50 [3]	Substance
23 µM	33 µM	10 µM	SEQ ID NO:3: SEQ ID NO:3 in which the carboxy terminal tryptophan is tryptophan amide; comprises a fragment of SEQ ID NO:2 (SAASSVSFMYW-NH2)
29 µM	60 µM	9 µM	Ac-SASSSVSFMYW-NH2 [SEQ ID NO:2]
20 µM	91 µM	8 µM	Ac-NINPNNGGTIYNQFKFGKG-NH2 [SEQ ID NO:1]
